According to patent US7419655B2, “Skin care products” (Kimberly-Clark Worldwide, Inc., priority 2002, dated 2008):
“Also recorded” adds a separate entry of the source.

Legend:
[1] = test system: human skin fibroblast cell line (normal human dermal fibroblasts, neonatal); assay: Fibroblast proliferative response, 96-well Cell Titer 96 Aqueous One assay (Example 2, FIG. 2, Table 2); format: cell-based; conditions: for effect on cellular proliferation (in words): 5 and 10 ul, versus serum-free DMEM control, one-way ANOVA; for Mean (spectrophotometric absorbance at 490 nm) / Median (spectrophotometric absorbance at 490 nm): 28 hours incubation, n=5, Table 2
Procedure: A stock solution of CNA was prepared with chitosan (0.0297M) and equimolar amounts of ascorbic acid and niacinamide (0.01649M) in water. Test solutions of equimolar ascorbic acid and niacinamide (0.01649M) were prepared separately in water. All the compounds were tested at two doses, 5 and 10 ul with n=5. DMEM was used as a negative control (n=5). The proliferative response of CNA, ascorbic acid and niacinamide, on the human skin fibroblast cell line (Clonetics, Walkersville, Md., normal human dermal fibroblasts, neonatal) was measured in a 96-well assay system using serum-free DMEM (Dulbecco's Modified Eagle's Medium, Sigma Chemical Co.) as a control. Cells were seeded into 96 well plates at a concentration of 1×10^2 cells in 100 μl of DMEM containing 10% fetal bovine serum (FBS, Sigma Chemical Co., St. Louis, Mo.). Plates were incubated for 24 hours at 37° C. in a humidified 5% CO2 atmosphere. After incubation, the medium was aspirated and the wells were rinsed twice with 100 μl of serum-free DMEM. The final rinse was aspirated and 100 ul DMEM serum was added to each well before adding test compounds. All wells were incubated for 28 hours at 37° C. in a humidified, 5% CO2 atmosphere. After incubation, 20 μl of Cell Titer 96 Aqueous One Solution (Promega) was added to all wells. The plates were swirled gently and placed back in the incubator for 90 minutes and spectrophotometric absorbance was read at 490 nm. Statistical analysis of data was performed by using one-way ANOVA. P<0.05 is considered significant while P<0.001 is considered as very very significant.

[2] = test system: human skin fibroblast cell line (normal human dermal fibroblasts, neonatal); assay: Fibroblast proliferative response, 96-well Cell Titer 96 Aqueous One assay (Example 1, FIG. 1, Table 1); format: cell-based; conditions: for Mean (spectrophotometric absorbance at 490 nm) / Median (spectrophotometric absorbance at 490 nm): 28 hours incubation, n=5, Table 1; for cell growth / cell density (OD), FIG. 1: control OD about 0.6
Procedure: A human skin fibroblast cell line was obtained from Clonetics (Walkersville, Md., normal human dermal fibroblasts, neonatal). Stock solutions of CNA were prepared with chitosan (0.0297M, degree of deacetylation 78.8%, Vanson Inc.) and equimolar amounts of ascorbic acid and niacinamide (0.01649M, Sigma Chemical Co.) in water. Test solutions of chitosan (0.0297M) and niacinamide ascorbate (0.01649M) were separately prepared. All the compounds were tested at two doses, 5 and 10 ul with n=5. DMEM was used as a negative control (n=5). The proliferative response of CNA, chitosan and NA, on the human skin fibroblast cell was measured in a 96-well assay system using serum-free DMEM (Dulbecco's Modified Eagle's Medium, Sigma Chemical Co.) as a control. Cells were seeded into 96 well plates at a concentration of 1×10^3 cells in 100 μl of DMEM containing 10% fetal bovine serum (FBS, Sigma Chemical Co., St. Louis, Mo.). Plates were incubated for 24 hours at 37° C. in a humidified 5% CO2 atmosphere. After incubation, the medium was aspirated and the wells were rinsed twice with 100 μl of serum-free DMEM. The final rinse was aspirated and 100 ul DMEM serum was added to each well before adding test compounds. All wells were incubated for 28 hours at 37° C. in a humidified, 5% CO2 atmosphere. After incubation, 20 μl of Cell Titer 96 Aqueous One Solution (Promega) was added to all wells. The plates were swirled gently and placed back in the incubator for 90 minutes and spectrophotometric absorbance was read at 490 nm. Statistical analysis of data was performed by using one-way ANOVA. P<0.05 is considered significant while P<0.001 is considered as very very significant.

[3] = group suffix 1 (doses were 5 and 10 ul)
[4] = group suffix 2 (doses were 5 and 10 ul)

Structure (SMILES) | effect on cellular proliferation (in words) [1] | Mean (spectrophotometric absorbance at 490 nm) [1, 3] | Median (spectrophotometric absorbance at 490 nm) [1, 3] | Mean (spectrophotometric absorbance at 490 nm) [1, 4] | Median (spectrophotometric absorbance at 490 nm) [1, 4] | effect on fibroblast growth / proliferation (in words) ([2]; 5 and 10 ul, versus serum-free DMEM control, one-way ANOVA) | Mean (spectrophotometric absorbance at 490 nm) ([2]; 5 ul dose) | Median (spectrophotometric absorbance at 490 nm) ([2]; 5 ul dose) | cell growth / cell density (OD), FIG. 1 ([2]; 5 μl) | Mean (spectrophotometric absorbance at 490 nm) ([2]; 10 ul dose) | Median (spectrophotometric absorbance at 490 nm) ([2]; 10 ul dose) | cell growth / cell density (OD), FIG. 1 ([2]; 10 μl)
O=C1O[C@H]([C@@H](O)CO)C(O)=C1O [Ascorbic acid, ascorbic acid] | some cell proliferating activity | 0.4002 | 0.3990 | 0.4598 | 0.4510 |  |  |  |  |  |  | 
NC(=O)c1cccnc1.O=C1O[C@H]([C@@H](O)CO)C(O)=C1O [NA, niacinamide ascorbate] |  |  |  |  |  | appeared to inhibit cellular growth in a dose dependent manner; also recorded: appears depress fibroblast cell growth | 0.5650 | 0.5630 | about 0.58 | 0.4826 | 0.4870 | about 0.50
NC(=O)c1cccnc1 [Niacinamide, niacinamide] | did not show any statistical difference | 0.3108 | 0.3140 | 0.3048 | 0.3070 |  |  |  |  |  |  | 
